From patent publication US6476187B1, “Methods and reagents for discovering and using mammalian melanocortin receptor agonists and antagonists to modulate feeding behavior in animals” (Oregon Health & Sciences University, priority 1992, dated 2002)
Residues, ends and D or L forms follow the SMILES beside them.

Experiments:
[1] = molecular target: T1, murine αMSH receptor (MC-1) (Mus musculus, UniProt Q01727); assay: intracellular cAMP accumulation in 293 cells transfected with mouse αMSH receptor; format: cell-based; details: 293 cells expressing murine αMSH receptor
T1 construct: excising the entire coding region of the αMSH^R (MC-1) cDNA insert comprising a 2.1 kb fragment; expressed in transfected cells; host or cells: human 293 cells, pcDNAI/neo, G418-selected
T1 sequence (Q01727 whole entry, the tested form may be a part): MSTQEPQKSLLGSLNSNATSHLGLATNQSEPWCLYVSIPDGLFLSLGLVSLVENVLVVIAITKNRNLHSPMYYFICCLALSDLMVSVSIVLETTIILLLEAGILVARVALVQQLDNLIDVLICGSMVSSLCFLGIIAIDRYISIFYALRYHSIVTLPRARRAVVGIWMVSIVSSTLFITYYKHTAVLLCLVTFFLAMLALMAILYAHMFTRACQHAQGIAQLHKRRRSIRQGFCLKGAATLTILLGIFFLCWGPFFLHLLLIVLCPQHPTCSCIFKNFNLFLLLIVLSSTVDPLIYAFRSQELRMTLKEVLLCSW
Experimental: After transfection, cells were cultured in DMEM media supplemented with 10% calf serum in a 3% CO2 atmosphere at 37° C. Selection was performed with neomycin (G418; GIBCO) at a concentration of 1000 μg/mL; selection was started 72 hr after transfection and continued for 3 weeks.
Following hormone treatment, the cells were washed twice with phosphate buffered saline and intracellular cAMP extracted by lysing the cells with 1 mL of 60% ethanol.

[2] = molecular target: T2, rat MC3-R (Rattus norvegicus, UniProt P32244); assay: intracellular cAMP production in 293 cells expressing MC3-R; format: cell-based; details: 1 h at 37° C.
T2 construct: The entire coding region of the MC-3 receptor cDNA insert; expressed in transfected cells; host or cells: human 293 cells, pcDNA/neo I, G418-selected
T2 sequence (P32244 whole entry): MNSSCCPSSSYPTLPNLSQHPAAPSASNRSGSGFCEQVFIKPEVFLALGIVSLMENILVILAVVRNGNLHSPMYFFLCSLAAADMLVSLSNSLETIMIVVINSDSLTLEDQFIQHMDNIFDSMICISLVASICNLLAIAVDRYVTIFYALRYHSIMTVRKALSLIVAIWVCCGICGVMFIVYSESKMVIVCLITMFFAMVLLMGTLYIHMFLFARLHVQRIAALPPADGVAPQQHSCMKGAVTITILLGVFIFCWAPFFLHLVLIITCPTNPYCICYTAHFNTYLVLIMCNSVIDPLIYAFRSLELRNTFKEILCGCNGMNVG
Experimental: cAMP production assays as described above were also used to analyze expression of MC3-R in cells transfected with the expression vectors described herein as follows. […] Following hormone treatment, the cells were washed twice with phosphate buffered saline and intracellular cAMP extracted by lysing the cells with 1 mL of 60% ethanol.

[3] = molecular target: T3, rat MC-3 receptor (Rattus norvegicus, UniProt P32244); assay: competition of [Nle4,D-Phe7]α-MSH binding to rat MC-3 receptor; details: peptide about 60% pure; IC50 could not be determined
T3 construct: The entire coding region of the MC-3 receptor cDNA insert; expressed in transfected cells; host or cells: human 293 cells, pcDNA/neo I, G418-selected
T3 sequence (P32244 whole entry): as above
Source text: […]. In these experiments, murine agouti peptide was produced using a baculovirus system as described by Lu et al., (1994, Nature 371: 799-802), with the modification that the agouti peptide was purified from baculovirus supernatants by 0.6M NaCl step elution from an EconoS cation exchange column (BioRad). Agouti peptide used in these assays was approximately 60% pure.

[4] = molecular target: human MC-4-R (Homo sapiens, UniProt P32245); details: Lu et al., 1994; cited from earlier work
Sequence of human MC-4-R (P32245 whole entry): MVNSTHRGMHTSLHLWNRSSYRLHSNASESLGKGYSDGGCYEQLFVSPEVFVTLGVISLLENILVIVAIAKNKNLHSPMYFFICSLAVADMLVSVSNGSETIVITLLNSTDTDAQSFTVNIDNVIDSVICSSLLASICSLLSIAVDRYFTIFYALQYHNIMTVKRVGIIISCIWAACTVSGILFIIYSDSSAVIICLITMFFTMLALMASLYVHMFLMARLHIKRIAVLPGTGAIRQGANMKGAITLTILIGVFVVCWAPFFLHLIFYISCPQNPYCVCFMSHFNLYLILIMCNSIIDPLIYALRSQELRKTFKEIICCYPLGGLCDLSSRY

**Q.** Which “EC50 (intracellular cAMP)” value ([1]; 45 min at 37° C.) does the source give for `CSCC[C@H](NC(=O)[C@H](CCCNC(=N)N)NC(=O)[C@H](Cc1ccc(O)cc1)NC(=O)[C@@H]1CCCN1C(=O)CNC(=O)[C@H](CCC(=O)O)NC(=O)[C@H](CC(=O)O)NC(=O)[C@H](CCCCN)NC(=O)[C@H](CCCCN)NC(=O)[C@H](CCC(=O)O)NC(=O)[C@H](C)N)C(=O)N[C@@H](CCC(=O)O)C(=O)N[C@@H](Cc1c[nH]cn1)C(=O)N[C@@H](Cc1ccccc1)C(=O)N[C@@H](CCCNC(=N)N)C(=O)N[C@@H](Cc1c[nH]c2ccccc12)C(=O)NCC(=O)N[C@@H](CO)C(=O)N1CCC[C@H]1C(=O)N1CCC[C@H]1C(=O)N[C@@H](CCCCN)C(=O)N[C@@H](CC(=O)O)C(=O)O` [βMSH] here?
**A.** Its value is “comparable to αMSH”.

**Q.** Which EC50 [2] does the source give for `CSCC[C@H](NC(=O)[C@@H](NC(=O)[C@@H](N)Cc1ccc(O)cc1)C(C)C)C(=O)NCC(=O)N[C@@H](Cc1c[nH]cn1)C(=O)N[C@@H](Cc1ccccc1)C(=O)N[C@@H](CCCNC(=N)N)C(=O)N[C@@H](Cc1c[nH]c2ccccc12)C(=O)N[C@@H](CC(=O)O)C(=O)N[C@@H](CCCNC(=N)N)C(=O)N[C@@H](Cc1ccccc1)C(=O)NCC(=O)N[C@@H](CCCNC(=N)N)C(=O)N[C@@H](CCCNC(=N)N)C(=O)N[C@@H](CC(N)=O)C(=O)NCC(=O)N[C@@H](CO)C(=O)N[C@@H](CO)C(=O)N[C@@H](CO)C(=O)N[C@@H](CO)C(=O)NCC(=O)N[C@H](C(=O)NCC(=O)NCC(=O)N[C@@H](C)C(=O)N[C@@H](C)C(=O)N[C@@H](CCC(N)=O)C(=O)O)C(C)C` [γ3-MSH] (H-YVMGHFRWDRFGRRNGSSSSGVGGAAQ-OH; N-terminus and C-terminus assumed) here?
**A.** The EC50 was 6 nM.

**Q.** For `CSCC[C@H](NC(=O)[C@@H](NC(=O)[C@@H](N)Cc1ccc(O)cc1)C(C)C)C(=O)NCC(=O)N[C@@H](Cc1c[nH]cn1)C(=O)N[C@@H](Cc1ccccc1)C(=O)N[C@@H](CCCNC(=N)N)C(=O)N[C@@H](Cc1c[nH]c2ccccc12)C(=O)N[C@@H](CC(=O)O)C(=O)N[C@@H](CCCNC(=N)N)C(=O)N[C@@H](Cc1ccccc1)C(N)=O` [γ-MSH, γ-melanocyte stimulating hormone], which “activity in elevating intracellular cAMP” value [1] is on record?
**A.** Its value is “little or no activity”.

B1: agouti peptide: murine agouti peptide produced using a baculovirus system, approximately 60% pure (protein)
chain: HLALEETLGDDRSLRSNSSMNSLDFSSVSIVALNKKSKKISRKEAEKRKRSSKKKASMKKVARPPPPSPCVATRDSCKPPAPACCDPCASCQCRFFGSACTCRVLNPNC
**Q.** Which results are given for B1?
**A.** competition of [Nle4,D-Phe7]α-MSH binding [3]: Specific competition; competition of αMSH activation [4]: Specific competition
